Consider 65 compounds from patent publication US20220340564A1, “ANTIBACTERIAL COMPOUNDS” (Janssen Sciences Ireland Unlimited Company, priority 2019, published 2022).

The test deals with Mycobacterium tuberculosis strain EH4.0 expressing green-fluorescent protein (GFP). The test can be described thus: microbe, parasite or virus in culture. Type of test: cell-based. As to conditions: 168 h, read-out: pIC50 (converted).
For the compound `CCC1=NN(c2ccc(CNC(=O)c3c(CC)nc4ccc(Cl)cn34)cc2)CCN1S(=O)(=O)C(F)(F)F` [Compound 2], the IC50 is 15.8 nM.
Turning to `CCc1nc2n(c1C(=O)NCc1ccc(N3CCN(S(=O)(=O)C(F)(F)F)C=N3)cc1)CCCC2` [Compound 3], the IC50 is 31.6 nM.
To `CCc1nc2ccc(Cl)cn2c1C(=O)NCc1ccc(N2C=NN(C)CC2)cc1` [Compound 4] belongs 39.8 nM.
To `CCc1nc2ccc(Cl)cn2c1C(=O)NCc1ccc(N2CCN(S(=O)(=O)C(F)(F)F)C=N2)c(C)c1` [Compound 5] belongs 7.94 nM; to `O=C(NCc1ccc(N2CCN(S(=O)(=O)C(F)(F)F)C=N2)cc1)c1c(C2CC2)nc2ncc(Cl)cn12` [Compound 7], 63.1 nM; to `CCc1nc2ncc(F)cn2c1C(=O)NCc1ccc(N2CCN(S(=O)(=O)C(F)(F)F)C=N2)cc1` [Compound 10], 63.1 nM.
As for `COc1ccn2nc(C)c(C(=O)NCc3ccc(N4CCN(S(=O)(=O)C(F)(F)F)C=N4)cc3)c2c1` [Compound 14], the IC50 is 6.31 nM.
To `CCc1nc2ccc(Cl)cn2c1C(=O)NCc1ccc(N2CCN(C)C=N2)cc1` [Compound 15] belongs 25.1 nM; to `CCc1nc2ccc(Cl)cn2c1C(=O)NCc1ccc(N2CCN(S(=O)(=O)CC(C)C)C=N2)cc1` [Compound 17], 20 nM; to `CCc1nc2ccc(Cl)cn2c1C(=O)NCc1ccc(N2CCN(C(C)=O)C=N2)cc1` [Compound 18], 15.8 nM.
As for `CCc1nc2ccc(Cl)cn2c1C(=O)NCc1ccc(N2CCN(S(=O)(=O)CCOC)C=N2)cc1` [Compound 19], the IC50 is 39.8 nM.
To `CCc1nc2ccc(Cl)cn2c1C(=O)NCc1ccc(N2CCN(S(=O)(=O)C(F)(F)F)C(C)=N2)cc1` [Compound 21] belongs 2.51 nM; to `CCc1nc2ccc(Cl)cn2c1C(=O)NCc1ccc(N2CCN(S(=O)(=O)C(F)(F)F)C=N2)cc1OC` [Compound 22], 398 nM; to `CCc1nc2ncc(Cl)cn2c1C(=O)NCc1ccc(N2CCN(S(=O)(=O)CC(C)C)C=N2)cc1` [Compound 23], 12.6 nM.
`CCc1nc2ncc(Cl)cn2c1C(=O)NCc1ccc(N2CCN(C(C)=O)C=N2)cc1` [Compound 24]: the IC50 is 15.8 nM.
To `CCc1nc2ncc(Cl)cn2c1C(=O)NCc1ccc(N2CCN(S(=O)(=O)C(F)(F)F)C(OC)=N2)cc1` [Compound 27] belongs 2 nM; to `CCc1nc2ncc(COC)cn2c1C(=O)NCc1ccc(N2CCN(S(=O)(=O)C(F)(F)F)C=N2)cc1` [Compound 33], 25.1 nM; to `COC1=NN(c2ccc(CNC(=O)c3c(C)nn4ccc(OC)cc34)cc2)CCN1S(=O)(=O)C(F)(F)F` [Compound 34], 10 nM.
To `CCc1nc2ccc(Cl)cn2c1C(=O)NCc1cc(F)c(N2CCN(S(=O)(=O)C(F)(F)F)C=N2)c(F)c1` [Compound 35] belongs 5.01 nM; to `CCc1nc2ccc(Cl)cn2c1C(=O)NCc1ccc(N2CCN(S(=O)(=O)C(F)(F)F)C(OC)=N2)c(F)c1` [Compound 37], 3.98 nM.
To `CCc1nc2ccc(Cl)cn2c1C(=O)NCc1ccc(N2CCN(C=O)C=N2)cc1` [Compound 38] belongs 63.1 nM; to `CCc1nc2c(Cl)c(OC)ccn2c1C(=O)NCc1ccc(N2CCN(S(=O)(=O)C(F)(F)F)C=N2)cc1` [Compound 39], 79.4 nM; to `CCc1nc2ccc(Cl)cn2c1C(=O)NCc1ccc(N2CCN(S(=O)(=O)C(F)(F)F)C(CCO)=N2)cc1` [Compound 40], 63.1 nM.
Turning to `CCc1nc2ncc(Cl)cn2c1C(=O)NCc1ccc(N2CCN(S(=O)(=O)C(F)(F)F)C(CCO)=N2)cc1` [Compound 41], the IC50 was 50.1 nM.
To `CCc1nc2ccc(OC)cn2c1C(=O)NCc1ccc(N2CCN(S(=O)(=O)C(F)(F)F)C=N2)cc1` [Compound 42] belongs 6.31 nM.
To `CCOc1ccc2nc(CC)c(C(=O)NCc3ccc(N4CCN(S(=O)(=O)C(F)(F)F)C=N4)cc3)n2c1` [Compound 43] belongs 10 nM; to `CCc1nc2cc(Cl)c(OC)cn2c1C(=O)NCc1ccc(N2CCN(S(=O)(=O)C(F)(F)F)C(OC)=N2)cc1` [Compound 45], 39.8 nM.
To `CCc1nc2cc(OC)c(Cl)cn2c1C(=O)NCc1ccc(N2CCN(S(=O)(=O)C(F)(F)F)C(OC)=N2)c(F)c1` [Compound 46] belongs 100 nM; to `CCc1nc2ccc(OC)cn2c1C(=O)NCc1ccc(N2CCN(S(=O)(=O)C(F)(F)F)C(OC)=N2)c(F)c1` [Compound 48], 1.58 nM.
`CCc1nc2cc(Cl)c(OC)cn2c1C(=O)NCc1ccc(N2CCN(S(=O)(=O)C(F)(F)F)C(OC)=N2)c(F)c1` [Compound 49]: the IC50 was 23.4 nM.
To `CCc1nc2ncc(OC)cn2c1C(=O)NCc1ccc(N2CCN(S(=O)(=O)C(F)(F)F)C(OC)=N2)c(F)c1` [Compound 50] belongs 1.07 nM; to `CCc1nc2cc(OC)ccn2c1C(=O)NCc1ccc(N2CCN(S(=O)(=O)C(F)(F)F)C=N2)cc1` [Compound 51], 45.7 nM; to `CCc1nc2cc(OC)ccn2c1C(=O)NCc1ccc(N2CCN(S(=O)(=O)C(F)(F)F)C(OC)=N2)cc1` [Compound 52], 41.7 nM.
On to `CCc1nc2cc(OC)c(OC)cn2c1C(=O)NCc1ccc(N2CCN(S(=O)(=O)C(F)(F)F)C(OC)=N2)c(F)c1` [Compound 53], for which the IC50 was 81.3 nM.
To `CCc1nc2ccc(Cl)cn2c1C(=O)NCc1ccc(N2CCN(S(=O)(=O)C(F)(F)F)C(CCOC)=N2)cc1` [Compound 55] belongs 25.7 nM; to `CCc1nc2ccc(Cl)cn2c1C(=O)NCc1ccc(N2CCNC=N2)cc1` [Compound 56], 158000 nM; to `CCc1nc2n(c1C(=O)NCc1ccc(N3CCNC=N3)cc1)CCCC2` [Compound 57], at least 501 nM.
To `CCc1nc2n(c1C(=O)NCc1ccc(N3CCN(S(=O)(=O)CCOC)C=N3)cc1)CCCC2` [Compound 58] belongs 251 nM; to `CCc1nc2ccc(Cl)cn2c1C(=O)NCc1ccc(N2CCN(C)C(C)=N2)cc1` [Compound 59], 200 nM.
In the case of `CCc1nc2ncc(C(=O)N(C)C)cn2c1C(=O)NCc1ccc(N2CCN(S(=O)(=O)C(F)(F)F)C=N2)cc1` [Compound 60], the IC50 was 200 nM.
To `CCc1nc2ncc(C(=O)NC)cn2c1C(=O)NCc1ccc(N2CCN(S(=O)(=O)C(F)(F)F)C=N2)cc1` [Compound 61] belongs at least 501 nM.
To `CCc1nc2ncc(C(C)=O)cn2c1C(=O)NCc1ccc(N2CCN(S(=O)(=O)C(F)(F)F)C=N2)cc1` [Compound 62] belongs at least 501 nM; to `CCc1nc2ccc(CCCOC)cn2c1C(=O)NCc1ccc(N2CCN(S(=O)(=O)C(F)(F)F)C=N2)cc1` [Compound 63], at least 501 nM; to `CCc1nc2cc(OC)c(Cl)cn2c1C(=O)NCc1ccc(N2CCN(S(=O)(=O)C(F)(F)F)C=N2)cc1` [Compound 64], 316 nM.
To `CCc1nc2ccc(N3CCCC3)cn2c1C(=O)NCc1ccc(N2CCN(S(=O)(=O)C(F)(F)F)C=N2)cc1` [Compound 65] belongs at least 501 nM; to `CCc1nc2ccc(Cl)cn2c1C(=O)NCc1ccc(N2CCN(C(=O)C(F)(F)F)C=N2)cc1` [Compound 66], 251 nM; to `CCc1nc2cc(Cl)c(OC)cn2c1C(=O)NCc1ccc(N2CCN(S(=O)(=O)C(F)(F)F)C=N2)cc1` [Compound 67], 200 nM.
Take `CCc1nc2cc(OC)c(Cl)cn2c1C(=O)NCc1ccc(N2CCN(S(=O)(=O)C(F)(F)F)C(OC)=N2)cc1` [Compound 68]: the IC50 was at least 501 nM.
To `CCc1nc2ccc(Cl)cn2c1C(=O)NCc1ccc(N2CCN(Cc3nc(C(F)(F)F)cs3)C=N2)cc1` [Compound 69] belongs 126 nM; to `CCc1nc2cccc(Cl)n2c1C(=O)NCc1ccc(N2CCN(S(=O)(=O)C(F)(F)F)C(OC)=N2)cc1` [Compound 70], at least 501 nM.
On to `CCc1nc2ccc(C#N)cn2c1C(=O)NCc1ccc(N2CCN(S(=O)(=O)C(F)(F)F)C(OC)=N2)cc1` [Compound 71], for which the IC50 is 166 nM.
To `CCc1nc2ccc(C#N)cn2c1C(=O)NCc1ccc(N2CCN(S(=O)(=O)C(F)(F)F)C=N2)cc1` [Compound 72] belongs 158 nM; to `CCc1nc2ccc(Cl)cn2c1C(=O)NCc1ccc(N2CCN(S(=O)(=O)C(F)(F)F)C(CN(C)C)=N2)cc1` [Compound 74], 6.76 nM; to `CCc1nc2cc(OC)ccn2c1C(=O)NCc1ccc(N2CCN(S(=O)(=O)C(F)(F)F)C(OC)=N2)c(F)c1` [Compound 75], 6.31 nM.
To `CCc1nc2ccc(Cl)cn2c1C(=O)NCc1ccc(N2CCN(c3nccs3)C=N2)cc1` [Compound 76] belongs 13.5 nM; to `CCc1nc2ccc(Cl)cn2c1C(=O)NCc1ccc(N2CCN(S(=O)(=O)C(F)(F)F)C(CC#N)=N2)cc1` [Compound 77], 7.94 nM; to `COC1=NN(c2ccc(CNC(=O)c3c(C(F)(F)F)nc4ccccn34)cc2F)CCN1S(=O)(=O)C(F)(F)F` [Compound 79], 3.72 nM.
Regarding `CCc1nc2cc(NC)c(Cl)cn2c1C(=O)NCc1ccc(N2CCN(S(=O)(=O)C(F)(F)F)C=N2)c(F)c1` [Compound 80], the IC50 is at least 501 nM.
To `CCOc1cn2c(CC)c(C(=O)NCc3ccc(N4CCN(S(=O)(=O)C(F)(F)F)C=N4)c(F)c3)nc2nc1N1CCCC1` [Compound 81] belongs at least 501 nM; to `CCc1nc2nc(N3CCCC3)c(Cl)cn2c1C(=O)NCc1ccc(N2CCN(S(=O)(=O)C(F)(F)F)C=N2)c(F)c1` [Compound 82], at least 501 nM; to `CCc1nc2nc(NC)c(Cl)cn2c1C(=O)NCc1ccc(N2CCN(S(=O)(=O)C(F)(F)F)C=N2)c(F)c1` [Compound 83], 372 nM.
Consider `CCc1nc2c(C)cc(Cl)cn2c1C(=O)NCc1ccc(N2CCN(S(=O)(=O)C(F)(F)F)C=N2)c(F)c1` [Compound 85], for which the IC50 is 95.5 nM.
To `CCc1nc2nc(OC)c(Cl)cn2c1C(=O)NCc1ccc(N2CCN(S(=O)(=O)C(F)(F)F)C=N2)c(F)c1` [Compound 86] belongs 89.1 nM.
To `CCc1nc2c(Cl)cc(Cl)cn2c1C(=O)NCc1ccc(N2CCN(S(=O)(=O)C(F)(F)F)C=N2)c(F)c1` [Compound 87] belongs 89.1 nM; to `CCc1nc2c(C)cc(F)cn2c1C(=O)NCc1ccc(N2CCN(S(=O)(=O)C(F)(F)F)C=N2)c(F)c1` [Compound 89], 83.2 nM.
